Source: ChEMBL document CHEMBL1944573, “New bisabolane sesquiterpenoids from a marine-derived fungus Aspergillus sp. isolated from the sponge Xestospongia testudinaria” (Bioorg Med Chem Lett, 2012)
Values after ≈ are worked out from the molar mass of the structure shown.

How the values were obtained:
[1] = system: HepG2; experiment: Cytotoxicity against human HepG2 cells by MTT assay; format: functional, cell-based
[2] = system: Ca-Ski; experiment: Cytotoxicity against human CaSki cells by MTT assay; format: functional, cell-based

| SMILES | IC50 [1] [µg/mL] | IC50 [2] [µg/mL] |
| --- | --- | --- |
| CC(C)CCC[C@](C)(O)c1ccc(COc2cc(CO)ccc2[C@@](C)(O)CCCC(C)C)cc1O [DISYDONOL A] | 9.31 (≈ 19.1 µM) | 12.4 (≈ 25.5 µM) |
| CC(C)CCC[C@](C)(O)c1ccc(CO)cc1Oc1cc(CO)ccc1[C@](C)(O)CCCC(C)C [DISYDONOL B] | > 100 | > 100 |
| CC(C)CCC[C@](C)(O)c1ccc(Cc2cc([C@@](C)(O)CCCC(C)C)c(O)cc2CO)cc1O [DISYDONOL C] | 2.91 (≈ 5.98 µM) | 10.2 (≈ 21 µM) |
